Measured values as given in patent US6191288A, “Pyronin antibacterials, process and novel intermediates thereto” (Anadys Pharmaceuticals, Inc., priority 1999, dated 2001).
Values after ≈ are worked out from the molar mass of the structure shown. Like-named read-outs stand apart in the source and are kept apart here.

Columns and labels:
[1] = target: E. coli RNA polymerase (Escherichia coli, UniProt P0A8T7+P0A8V2); test: In vitro transcription assay, E. coli RNA polymerase; type: biochemical; details: for Relative potency in the in vitro transcription assay using E. coli RNA polymerase: FIGS. 20a,b, comparison in words; for IC50: Table II, in vitro transcription, read-out: IC50 E. coli (source of polymerase) (converted)
Chain of E. coli RNA polymerase (P0A8V2 whole entry): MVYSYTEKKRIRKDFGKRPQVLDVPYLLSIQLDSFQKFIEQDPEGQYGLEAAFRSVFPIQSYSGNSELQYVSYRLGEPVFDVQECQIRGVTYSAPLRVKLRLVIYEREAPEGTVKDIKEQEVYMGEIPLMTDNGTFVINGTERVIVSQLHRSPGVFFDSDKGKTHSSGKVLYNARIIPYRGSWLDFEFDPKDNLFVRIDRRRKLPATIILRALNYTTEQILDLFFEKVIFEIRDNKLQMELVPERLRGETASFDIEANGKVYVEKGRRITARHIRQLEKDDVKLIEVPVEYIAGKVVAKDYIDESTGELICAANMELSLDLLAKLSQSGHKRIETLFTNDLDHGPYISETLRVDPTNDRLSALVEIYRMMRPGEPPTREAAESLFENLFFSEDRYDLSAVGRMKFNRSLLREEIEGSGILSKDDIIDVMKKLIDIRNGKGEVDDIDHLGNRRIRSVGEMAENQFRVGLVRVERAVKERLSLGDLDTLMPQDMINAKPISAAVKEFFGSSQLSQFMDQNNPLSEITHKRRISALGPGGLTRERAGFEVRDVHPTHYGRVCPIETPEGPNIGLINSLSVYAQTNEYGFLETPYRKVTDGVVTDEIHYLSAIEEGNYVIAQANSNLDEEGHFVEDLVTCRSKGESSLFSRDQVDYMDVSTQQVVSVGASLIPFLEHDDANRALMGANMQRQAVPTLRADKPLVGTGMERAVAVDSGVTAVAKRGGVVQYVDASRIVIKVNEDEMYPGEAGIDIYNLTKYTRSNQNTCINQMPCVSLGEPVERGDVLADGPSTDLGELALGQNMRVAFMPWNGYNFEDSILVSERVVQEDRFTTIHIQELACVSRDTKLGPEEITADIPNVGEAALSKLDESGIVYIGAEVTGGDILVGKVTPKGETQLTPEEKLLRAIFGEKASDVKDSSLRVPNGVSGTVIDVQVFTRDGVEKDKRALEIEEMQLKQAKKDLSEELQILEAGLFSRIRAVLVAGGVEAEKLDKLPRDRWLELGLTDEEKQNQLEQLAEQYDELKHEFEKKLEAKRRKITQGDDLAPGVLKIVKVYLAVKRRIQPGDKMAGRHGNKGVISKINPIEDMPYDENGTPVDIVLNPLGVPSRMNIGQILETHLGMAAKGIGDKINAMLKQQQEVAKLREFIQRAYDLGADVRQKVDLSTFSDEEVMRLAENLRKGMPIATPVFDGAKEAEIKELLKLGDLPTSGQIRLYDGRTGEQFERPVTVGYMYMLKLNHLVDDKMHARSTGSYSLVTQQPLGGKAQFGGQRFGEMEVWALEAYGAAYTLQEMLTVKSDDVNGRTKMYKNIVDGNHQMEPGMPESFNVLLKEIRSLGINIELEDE
Chain of E. coli RNA polymerase (P0A8T7 whole entry): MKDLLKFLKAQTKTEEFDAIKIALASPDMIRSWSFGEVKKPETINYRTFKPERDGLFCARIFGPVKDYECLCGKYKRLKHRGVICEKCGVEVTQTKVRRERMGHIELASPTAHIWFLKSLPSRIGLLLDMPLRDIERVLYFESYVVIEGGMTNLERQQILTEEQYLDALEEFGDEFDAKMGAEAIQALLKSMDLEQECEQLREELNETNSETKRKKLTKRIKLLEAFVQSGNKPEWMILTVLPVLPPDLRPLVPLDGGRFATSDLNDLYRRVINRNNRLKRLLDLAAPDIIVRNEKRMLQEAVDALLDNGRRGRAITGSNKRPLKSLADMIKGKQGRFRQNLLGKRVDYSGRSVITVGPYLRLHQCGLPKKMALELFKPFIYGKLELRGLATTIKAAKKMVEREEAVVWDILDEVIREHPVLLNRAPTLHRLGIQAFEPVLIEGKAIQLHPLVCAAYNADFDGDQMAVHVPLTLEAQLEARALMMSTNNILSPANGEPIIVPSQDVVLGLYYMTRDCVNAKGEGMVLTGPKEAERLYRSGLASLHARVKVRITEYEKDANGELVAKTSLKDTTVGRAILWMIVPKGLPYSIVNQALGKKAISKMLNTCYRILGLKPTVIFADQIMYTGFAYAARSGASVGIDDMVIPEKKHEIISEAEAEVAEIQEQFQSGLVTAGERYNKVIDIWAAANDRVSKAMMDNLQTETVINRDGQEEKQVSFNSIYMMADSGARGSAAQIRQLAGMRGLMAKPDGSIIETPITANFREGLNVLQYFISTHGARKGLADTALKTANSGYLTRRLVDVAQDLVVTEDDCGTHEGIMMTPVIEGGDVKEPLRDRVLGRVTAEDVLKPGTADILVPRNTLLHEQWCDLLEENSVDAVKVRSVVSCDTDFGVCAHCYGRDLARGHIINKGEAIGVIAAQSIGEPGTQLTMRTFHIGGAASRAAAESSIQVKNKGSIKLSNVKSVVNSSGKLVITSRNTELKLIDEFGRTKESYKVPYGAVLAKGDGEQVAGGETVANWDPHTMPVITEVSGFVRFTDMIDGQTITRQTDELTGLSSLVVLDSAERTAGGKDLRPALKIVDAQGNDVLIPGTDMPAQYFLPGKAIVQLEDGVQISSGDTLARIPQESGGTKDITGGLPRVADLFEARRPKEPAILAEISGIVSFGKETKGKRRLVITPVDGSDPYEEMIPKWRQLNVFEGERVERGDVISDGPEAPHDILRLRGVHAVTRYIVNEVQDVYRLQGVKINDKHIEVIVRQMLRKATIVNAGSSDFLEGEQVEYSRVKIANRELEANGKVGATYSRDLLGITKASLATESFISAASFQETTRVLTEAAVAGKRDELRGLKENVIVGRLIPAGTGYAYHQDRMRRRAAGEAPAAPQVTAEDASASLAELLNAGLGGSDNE
Chain of E. coli RNA polymerase (P0A7Z4 whole entry partner): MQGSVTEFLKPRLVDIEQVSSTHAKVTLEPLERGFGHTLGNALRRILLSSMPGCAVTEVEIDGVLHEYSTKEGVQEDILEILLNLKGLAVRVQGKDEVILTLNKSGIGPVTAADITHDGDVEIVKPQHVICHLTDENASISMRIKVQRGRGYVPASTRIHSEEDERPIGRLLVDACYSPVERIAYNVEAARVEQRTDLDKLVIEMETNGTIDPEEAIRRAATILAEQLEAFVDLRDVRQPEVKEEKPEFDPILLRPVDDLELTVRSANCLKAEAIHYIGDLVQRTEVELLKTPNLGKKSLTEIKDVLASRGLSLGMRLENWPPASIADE
Chain of E. coli RNA polymerase (P0A800 whole entry partner): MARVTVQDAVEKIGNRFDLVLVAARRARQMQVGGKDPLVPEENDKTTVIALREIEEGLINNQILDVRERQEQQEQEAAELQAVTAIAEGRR
Description: (§1) In vitro transcription reactions. [α-^32 P] UTP-incorporated RNA was synthesized in 50 μl reaction volumes containing transcription buffer (50 mM Tris-HCl, pH 8.0, 200 mM KCL, 10 mM MgCl2, 10 mM DTT and 1.5 μM BSA), […] of DNA template, 4 μM UTP containing 5 μl of [α-^32 P] UTP, 400 μM each of ATP, GTP, and CTP. After incubation for 60 minutes at 25 ° C., the reaction is terminated with 100 μl 10% TCA, which also recipitates the newly transcribed RNA.

[2] = target: S. aureus RNAP (Staphylococcus aureus, UniProt P47768+Q2G0N5); test: In vitro transcription assay, S. aureus RNAP; type: biochemical
Description: as §1

[3] = target: Human RNAP (Homo sapiens, UniProt P24928+P30876); test: biochemical; details: Table II, in vitro transcription; read-out: IC50 human pol II
Description: as §1

[4] = test system: E. coli; test: Microdilution MIC, E. coli; type: cell-based; details: Escherichia coli
Description: (§2) Different dilutions are performed for natural product extracts.

[5] = test system: S. aureus; test: MBC, S. aureus; type: cell-based; details: Staphylococcus aureus, Table II
Description: (§3) The minimum bactericidal concentration (MBC) is defined as the concentration of antimicrobial agent from which no colonies grow on petri plates or in the medium. In practice, the MBC is arbitrarily defined as the concentration at which a 1000-fold reduction in colony forming units is observed with respect to the original inoculum (survival of 0. 1%). The broth dilution method consists of inoculating the wells from an MIC microliter plate using a 96-well inoculation grid into a fresh microliter plate containing 100 μl. Mueller-Hinton broth per well. The MBC plates are incubated at 37° C. for 16-20 hrs and the MBC values are determined.

[6] = test system: E. coli; test: MBC, E. coli; type: cell-based; details: Escherichia coli
Description: as §3

[7] = test system: S. aureus; test: Microdilution MIC, S. aureus; type: cell-based
Description: as §2

[8] = test system: S. epidermidis; test: MIC, S. epidermidis; type: cell-based; details: Staphylococcus epidermidis, MRSE, E-R
Description: as §2

[9] = test system: E. faecalis; test: MIC, E. faecalis; type: cell-based
Description: as §2

[10] = test system: E. faecium; test: MIC, E. faecium; type: cell-based; details: E. faecium Pen-R
Description: as §2

[11] = test system: S. pneumonia; test: MIC, S. pneumonia; type: cell-based
Description: as §2

[12] = test system: H. influenzae; test: MIC, H. influenzae; type: cell-based; details: Haemophilus influenzae
Description: as §2

[13] = test system: M. catarrhalis; test: MIC, M. catarrhalis; type: cell-based; details: Moraxella catarrhalis
Description: as §2

[14] = test system: K. pneumoniae; test: MIC, K. pneumoniae; type: cell-based; details: Klebsiella pneumoniae
Description: as §2

[15] = test system: E. cloacae; test: MIC, E. cloacae; type: cell-based; details: Enterobacter cloacae
Description: as §2

[16] = test system: P. aeruginosa; test: MIC, P. aeruginosa; type: cell-based; details: Pseudomonas aeruginosa
Description: as §2

[17] = test system: M. luteus; test: MIC, M. luteus; type: cell-based; details: Micrococcus luteus; M. luteus ATCC9341
Description: as §2

[18] = test system: rifampicin susceptible and rifampicin resistant strains; test: microbe, parasite or virus in culture
Description: The MIC is reported as a range between the concentration at which no growth is observed and the concentration of the dilution which immediately followed. Selected inhibitors from the RNA polymerase screen described above were tested for their ability to inhibit bacterial growth in a broth microdilution assay as follows. […] Dilution of antimicrobial agents is performed in a sterile, covered 96-well microliter plate with flat bottom wells (Costar #9017), and each well contains 100 μL of both +/-antimicrobial agent. The final concentrations of the small molecule antimicrobial agents are 100, 50, 25, 12.5, 6.25, 3.12, 1.56, 0.78, 0.39, 0.20, 0.10, and 0.05 μg/mL, respectively. Different dilutions are performed for natural product extracts. They are first diluted 100-fold with Mueller-Hinton broth. The final dilutions of the natural product extracts are 200, 400, 800, 1600, 3200, 6400, 12800, 25600, 51200, 1×105, 2×105, and 4 ×105-fold. A 1% DMSO (no-drug) row is prepared in Mueller-Hinton broth as a control for 100% growth on each plate. A Mueller-Hinton broth only with no bacteria growth is also included as a negative control for each plate. Ampicillin and rifampicin are used as positive controls against all bacterial strains in every experiment.
The overnight culture of a single colony is diluted in sterile Mueller-Hinton broth so that, after inoculation, each well contains approximately 5×10^5 CFU/mL. Within 15 minutes of preparation, […] of the adjusted inoculum suspension is added to the microliter plate. Each well is diluted with an equal volume of the antimicrobial agent/control substance diluted with sterile Mueller-Hinton broth. The inoculated microliter plate is incubated at 35° C. for 16-20 hours. The turbidity of each well is determined by measuring the absorbance at 595 nm on the BioRad Model 3550-UV microplate reader. The rows containing broth only (no cells) serve as a control, and the rows containing the titration of 1% DMSO serve as a control for 100% growth. The average of the broth only controls is subtracted from the average of each duplicate. This value is subsequently normalized to the average of the DMSO controls.

[19] = test system: myxopyronin-, rifampicin-, and streptolydigin-resistant S. aureus; test: Growth (optical density at 595 nm) of drug-resistant S. aureus cultured with each drug (FIG. 22); type: cell-based; details: FIG. 22, absorbance at 595 nm
Description: FIG. 22 is a bar graph showing the growth of bacterial cultures, measured by its optical density as measured by absorbance of light at 595 nanometers, after bacteria resistant to myxopyronins, rifampicin, and streptolydigin were cultured in the presence of each of these drugs.
The site of action of the myxopyronins on RNA polymerase was investigated by assessing the growth of myxopyronin-, rifampicin-, and streptolydigin-resistant S. aureus in the presence of the 90/10 myxopyronin A/B mixture.

[20] = read-out: MIC E. coli*, Table II, mutant strain that has permeabilized cell wall
[21] = rifampicin-resistant S. aureus, read-out: MBC rifR-S. aureus
[22] = Table II, read-out: MBC E. coli

## CCC/C(C)=C/C=C(\C)C(=O)c1c(O)cc(C(C)CC/C=C/NC(=O)OC)oc1=O (racemic) [MYXO A, (±)-Myxopyronin A]
[1]
  Relative potency in the in vitro transcription assay using E. coli RNA polymerase: equally potent as the natural product mixtures
  IC50: 7.19 µM
[2]
  IC50: 24 µM
[3]
  IC50: > 144 µM
[4]; [20]
  MIC: 8 µg/mL (≈ 19.2 µM)
[5]; read-out: MBC S. aureus
  MBC: 15 µg/mL (≈ 35.9 µM)
[5]; [21]
  MBC: 15 µg/mL (≈ 35.9 µM)
[6]; read-out: MBC E. coli*
  MBC: > 30 µg/mL
[6]; [22]
  MBC: > 30 µg/mL

## CCCC/C(C)=C/C=C(\C)C(=O)c1c(O)cc(C(C)CC/C=C/NC(=O)OC)oc1=O (racemic) [MYXO B, (±)-myxopyronin B]
[1]
  Relative potency in the in vitro transcription assay using E. coli RNA polymerase: more potent molecule than A
  IC50: 1.85 µM
[2]
  IC50: 1.39 µM
[3]
  IC50: > 139 µM
[7]; S. aureus MRSA, E-S, CC-S
  MIC: 1 µg/mL (≈ 2.32 µM)
[7]; Staphylococcus aureus, ATCC25923, S. aureus ATCC25923, read-out: MIC
  MIC: 1 µg/mL (≈ 2.32 µM)
[7]; Staphylococcus aureus, ATCC29213, S. aureus ATCC29213, read-out: MIC
  MIC: 1 µg/mL (≈ 2.32 µM)
[7]; Staphylococcus aureus, MRSA, S. aureus MRSA, E-R, CC-S, read-out: MIC
  MIC: 1 µg/mL (≈ 2.32 µM)
[7]; Staphylococcus aureus, Table II, read-out: MIC S. aureus
  MIC: 0.4 µg/mL (≈ 0.927 µM)
[7]; Staphylococcus aureus, Table II, rifampicin-resistant S. aureus, read-out: MIC rifR-S. aureus
  MIC: 0.2 µg/mL (≈ 0.463 µM)
[7]; up to, over the bacteria of Table II
  Fold more potent cell-based (growth inhibitory) activity than myxopyronin A: up to 75 fold
[4]; ATCC25922, Table III, E. coli ATCC25922, read-out: MIC
  MIC: > 64 µg/mL
[4]; Table III, E. coli parent (non-permeable), read-out: MIC
  MIC: > 64 µg/mL
[4]; Table III, E. coli permeable, read-out: MIC
  MIC: 1 µg/mL (≈ 2.32 µM)
[4]; [20]
  MIC: 0.4 µg/mL (≈ 0.927 µM)
[4]; Table II, read-out: MIC E. coli
  MIC: > 100 µg/mL
[5]; read-out: MBC S. aureus
  MBC: 0.4 µg/mL (≈ 0.927 µM)
[5]; [21]
  MBC: 0.4 µg/mL (≈ 0.927 µM)
[6]; read-out: MBC E. coli*
  MBC: 0.2 µg/mL (≈ 0.463 µM)
[6]; [22]
  MBC: > 100 µg/mL
[8]; CC-R
  MIC: 1 µg/mL (≈ 2.32 µM)
[8]; CC-S
  MIC: 4 µg/mL (≈ 9.27 µM)
[9]; E. faecalis Pen-S, Vanco-S
  MIC: 16 µg/mL (≈ 37.1 µM)
[9]; Enterococcus faecalis, ATCC29212, E. faecalis ATCC29212, read-out: MIC
  MIC: 16 µg/mL (≈ 37.1 µM)
[9]; Enterococcus faecalis, E. faecalis Pen-R, Vanco-S, read-out: MIC
  MIC: 8 µg/mL (≈ 18.5 µM)
[9]; Enterococcus faecalis, E. faecalis Pen-S, Vanco-S, read-out: MIC
  MIC: 32 µg/mL (≈ 74.2 µM)
[10]; Vanco-R
  MIC: > 64 µg/mL
[10]; Vanco-S
  MIC: > 64 µg/mL
[10]; Enterococcus faecium, Vanco-R, read-out: MIC
  MIC: 64 µg/mL (≈ 148 µM)
[10]; Enterococcus faecium, Vanco-S, read-out: MIC
  MIC: 64 µg/mL (≈ 148 µM)
[11]; S. pneumonia ATCC49619
  MIC: 8 µg/mL (≈ 18.5 µM)
[11]; S. pneumonia Pen I (MIC 0.12)
  MIC: 8 µg/mL (≈ 18.5 µM)
[11]; S. pneumonia Pen I (MIC 0.25)
  MIC: 8 µg/mL (≈ 18.5 µM)
[11]; S. pneumonia Pen I (MIC 1.0)
  MIC: 8 µg/mL (≈ 18.5 µM)
[11]; S. pneumonia Pen R (MIC 2.0)
  MIC: 16 µg/mL (≈ 37.1 µM)
[11]; S. pneumonia Pen R (MIC 4.0)
  MIC: 8 µg/mL (≈ 18.5 µM)
[11]; S. pneumonia Pen S (MIC <0.06)
  MIC: 8 µg/mL (≈ 18.5 µM)
[12]; ATCC49247, H. influenzae ATCC49247
  MIC: 2 µg/mL (≈ 4.63 µM)
[12]; H. influenzae non-typable
  MIC: 8 µg/mL (≈ 18.5 µM)
[13]; M. catarrhalis beta lactamase negative
  MIC: 0.5 µg/mL (≈ 1.16 µM)
[13]; M. catarrhalis beta lactamase positive
  MIC: 1 µg/mL (≈ 2.32 µM)
[14]
  MIC: > 64 µg/mL
[15]
  MIC: > 64 µg/mL
[16]; P. aeruginosa ATCC27853
  MIC: > 64 µg/mL
[16]; P. aeruginosa, strain not named
  MIC: > 64 µg/mL
[17]
  MIC: 8 µg/mL (≈ 18.5 µM)

## CO[C@H]1/C=C/O[C@@]2(C)Oc3c(C)c(O)c4c(O)c(c(/C=N/N5CCN(C)CC5)c(O)c4c3C2=O)NC(=O)/C(C)=C\C=C\[C@H](C)[C@H](O)[C@@H](C)[C@@H](O)[C@@H](C)[C@H](OC(C)=O)[C@@H]1C [rifampicin]
[18]; read-out: MIC against resistant strains, background statement b17
  MIC: > 10 µM
[18]; read-out: MIC against rifampicin resistant strains, Example 11, b337
  MIC: > 100 µM
[18]; read-out: MIC against susceptible strains, Example 11, b337
  MIC: 10 µM (≈ 8.23 µg/mL)
[18]; read-out: MIC against susceptible strains, background statement b17
  MIC: ~0.01 µM (≈ 0.00823 µg/mL)
[19]
  Growth of myxopyronin resistant S. aureus strain in the presence of the drug: inhibits growth
  Growth of rifampicin resistant S. aureus strain in the presence of the drug: continues to grow
  Growth of streptolydigin-resistant S. aureus strain in the presence of the drug: inhibited

## CNC(=O)[C@@H](C)[C@H]1C(=O)/C(=C(O)/C=C/C(C)=C/[C@@H](C)[C@H]2O[C@@]3(C)O[C@H](C=C[C@@]34CO4)[C@@H]2C)C(=O)N1[C@@H]1CC[C@H](O)[C@H](C)O1 [streptolydigin]
[19]
  Growth of myxopyronin resistant S. aureus strain in the presence of the drug: inhibits growth
  Growth of rifampicin resistant S. aureus strain in the presence of the drug: inhibits growth
  Growth of streptolydigin-resistant S. aureus strain in the presence of the drug: continues to grow
